Legend:
MDA-MB-468 = experiment: NCI-60 anticancer screen (SRB; single dose and five doses); type: cell-based, human
Method: The methodology of the NCI anticancer screening has been described in detail elsewhere (http://www.dtp.nci.nih.gov). For detailed information, see Appendix A in the Supplementary Materials.
4.2.1. Screening of the anticancer activity against a panel of 60 cell Lines.
The methodology of the NCI anticancer screening has been described in detail elsewhere (http://www.dtp.nci.nih.gov.) Briefly, the primary anticancer assay was performed at approximately 60 human tumor cell lines panel derived from nine neoplastic diseases, in accordance with the protocol of the Drug Evaluation Branch, National Cancer Institute, Bethesda. Tested compounds were added to the culture at a single concentration (10μM) and the cultures were incubated for 48 h. End -point determinations were made with a protein binding dye, SRB. Results for each tested compound was reported as the percent of growth of the treated cells when compared to the untreated control cells. The percentage growth was evaluated spectrophotometrically versus controls not treated with test agents. […]

[1] = system: 60 human tumor cell lines panel; experiment: NCI-60 anticancer screen, whole panel (means and ranges over the cell lines); type: cell-based
SNB-19 = experiment: cells; details: Homo sapiens
MOLT-4 = experiment: NCI-60 anticancer screen (SRB; single dose and five doses); details: Homo sapiens
RPMI-8226 = experiment: as above; details: Homo sapiens
A549/ATCC = experiment: as above; details: Homo sapiens
HOP-62 = experiment: as above; details: Homo sapiens
HOP-92 = experiment: as above; details: Homo sapiens
NCI-H226 = experiment: as above; details: Homo sapiens
NCI-H322M = experiment: as above; details: Homo sapiens
NCI-H460 = experiment: as above; details: Homo sapiens
NCI-H522 = experiment: as above; details: Homo sapiens
COLO 205 = experiment: as above; details: Homo sapiens
HCC-2998 = experiment: as above; details: Homo sapiens
HCT-116 = experiment: as above; details: Homo sapiens
MALME-3M = experiment: as above; details: Homo sapiens
SK-MEL-28 = experiment: as above; details: Homo sapiens
OVCAR-8 = experiment: as above; details: Homo sapiens
NCI/ADR-RES = experiment: as above; details: Homo sapiens
SK-OV-3 = experiment: as above; details: Homo sapiens
A498 = experiment: as above; details: Homo sapiens
ACHN = experiment: as above; details: Homo sapiens
RXF 393 = experiment: as above; details: Homo sapiens
PC-3 = experiment: as above; details: Homo sapiens
BT-549 = experiment: as above; details: Homo sapiens
[2] = five doses, mean graph midpoint over all cell lines
[3] = 48 h, read-out: Growth Percentage

## Cc1[nH]c(=S)sc1C(=O)/C=C/c1cccc(Cl)c1 [2e, (E)-3-(3-Chlorophenyl)-1-(4-Methyl-2-Thioxo-2,3-Dihydrothiazol-5-yl)Prop-2-En-1-One]
MDA-MB-468; Homo sapiens, 48 h, MDA-MB-468, dose of 10 μM, read-out: Growth Percentage
  activity at 10 µM: -7.12%
MDA-MB-468; Homo sapiens, MDA-MB-468, MDA-MB-468, Breast Cancer, five dose
  IC50: 12.6 µM
MDA-MB-468; Homo sapiens, MDA-MB-468, Breast Cancer, five dose
  GI50: 3.8 µM
MDA-MB-468; Homo sapiens, MDA-MB-468, Breast Cancer, five dose, read-out: LC50 (the source's name)
  CC50: 46.8 µM
MDA-MB-468; MDA-MB-468, Breast Cancer, five dose
  TGI: 15.85 µM
[1]; Homo sapiens, 48 h, range over the cell lines, dose of 10 μM, read-out: growth percentages against most of the tested cells (lowest to highest)
  activity at 10 µM: -26.1 to 98%
[1]; [2]
  Log10GI50 _MID: -5.17 Molar
  Log10LC50 _MID: -4.26 Molar
  Log10TGI _MID: -4.66 Molar
SNB-19; SNB-19
  IC50: 17 µM
SNB-19; SNB-19, read-out: LC50
  CC50: 49 µM
SNB-19; SNB-19, read-out: TGI
  IC (TGI): 21.4 µM
MOLT-4; MOLT-4
  GI50: 2.82 µM
  IC50: 4.27 µM
MOLT-4; MOLT-4, 48 h, read-out: Growth Percentage
  activity at 10 µM: 19.8%
MOLT-4; MOLT-4, read-out: LC50
  CC50: > 100 µM
MOLT-4; MOLT-4, read-out: TGI
  IC (TGI): > 100 µM
RPMI-8226; RPMI-8226
  GI50: 2.04 µM
  IC50: 3.72 µM
RPMI-8226; RPMI-8226, 48 h, read-out: Growth Percentage
  activity at 10 µM: 10.4%
RPMI-8226; RPMI-8226, read-out: LC50
  CC50: > 100 µM
RPMI-8226; RPMI-8226, read-out: TGI
  IC (TGI): 5.5 µM
A549/ATCC; A549
  GI50: 4.79 µM
  IC50: 7.41 µM
A549/ATCC; A549, 48 h, read-out: Growth Percentage
  activity at 10 µM: 26.5%
A549/ATCC; A549, read-out: LC50
  CC50: > 100 µM
A549/ATCC; A549, read-out: TGI
  IC (TGI): 47.9 µM
HOP-62; HOP-62
  GI50: 2.57 µM
  IC50: 4.68 µM
HOP-62; HOP-62, 48 h, read-out: Growth Percentage
  activity at 10 µM: 10.4%
HOP-62; HOP-62, read-out: LC50
  CC50: 74.1 µM
HOP-62; HOP-62, read-out: TGI
  IC (TGI): 6.31 µM
HOP-92; HOP-92
  GI50: 3.55 µM
  IC50: 79.4 µM
HOP-92; HOP-92, read-out: LC50
  CC50: > 100 µM
HOP-92; HOP-92, read-out: TGI
  IC (TGI): 30.9 µM
NCI-H226; NCI-H226
  GI50: 4.37 µM
  IC50: 29.5 µM
NCI-H226; NCI-H226, 48 h, read-out: Growth Percentage
  activity at 10 µM: 32.7%
NCI-H226; NCI-H226, read-out: LC50
  CC50: > 100 µM
NCI-H226; NCI-H226, read-out: TGI
  IC (TGI): 38.9 µM
NCI-H322M
  GI50: 6.03 µM
  IC50: 16.2 µM
NCI-H322M; [3]
  activity at 10 µM: 50.1%
NCI-H322M; read-out: LC50
  CC50: 85.1 µM
NCI-H322M; read-out: TGI
  IC (TGI): 26.3 µM
NCI-H460; NCI-H460
  GI50: 2.75 µM
  IC50: 3.55 µM
NCI-H460; NCI-H460, 48 h, read-out: Growth Percentage
  activity at 10 µM: 12.1%
NCI-H460; NCI-H460, read-out: LC50
  CC50: 45.7 µM
NCI-H460; NCI-H460, read-out: TGI
  IC (TGI): 7.59 µM
NCI-H522; NCI-H522
  GI50: 4.57 µM
  IC50: 11.5 µM
NCI-H522; NCI-H522, 48 h, read-out: Growth Percentage
  activity at 10 µM: 22%
NCI-H522; NCI-H522, read-out: LC50
  CC50: 45.7 µM
NCI-H522; NCI-H522, read-out: TGI
  IC (TGI): 17.4 µM
COLO 205; COLO 205
  GI50: 3.55 µM
  IC50: 5.25 µM
COLO 205; COLO 205, 48 h, read-out: Growth Percentage
  activity at 10 µM: 70.7%
COLO 205; COLO 205, read-out: LC50
  CC50: 51.3 µM
COLO 205; COLO 205, read-out: TGI
  IC (TGI): 14.4 µM
HCC-2998; HCC 2998
  GI50: 2.57 µM
  IC50: 4.37 µM
HCC-2998; HCC 2998, 48 h, read-out: Growth Percentage
  activity at 10 µM: 13.9%
HCC-2998; HCC 2998, read-out: LC50
  CC50: 28.2 µM
HCT-116; HCT-116
  GI50: 1.82 µM
  IC50: 2.95 µM
HCT-116; HCT-116, 48 h, read-out: Growth Percentage
  activity at 10 µM: 3.28%
HCT-116; HCT-116, read-out: LC50
  CC50: 7.41 µM
HCT-116; HCT-116, read-out: TGI
  IC (TGI): 3.63 µM
MALME-3M
  GI50: 2.24 µM
  IC50: 5.13 µM
MALME-3M; [3]
  activity at 10 µM: 86.9%
MALME-3M; read-out: LC50
  CC50: 50.1 µM
MALME-3M; read-out: TGI
  IC (TGI): 5.75 µM
SK-MEL-28; SK-MEL-28
  GI50: 2.14 µM
  IC50: 4.07 µM
SK-MEL-28; SK-MEL-28, 48 h, read-out: Growth Percentage
  activity at 10 µM: 44.7%
SK-MEL-28; SK-MEL-28, read-out: LC50
  CC50: 13.5 µM
SK-MEL-28; SK-MEL-28, read-out: TGI
  IC (TGI): 4.9 µM
OVCAR-8; OVCAR-8
  GI50: 2.69 µM
  IC50: 3.89 µM
OVCAR-8; OVCAR-8, 48 h, read-out: Growth Percentage
  activity at 10 µM: 10.4%
OVCAR-8; OVCAR-8, read-out: LC50
  CC50: > 100 µM
OVCAR-8; OVCAR-8, read-out: TGI
  IC (TGI): 7.59 µM
NCI/ADR-RES
  GI50: 2.88 µM
  IC50: 5.01 µM
NCI/ADR-RES; [3]
  activity at 10 µM: -5.11%
NCI/ADR-RES; read-out: LC50
  CC50: > 100 µM
NCI/ADR-RES; read-out: TGI
  IC (TGI): > 100 µM
SK-OV-3; SK-OV-3
  GI50: 17.4 µM
  IC50: 51.3 µM
SK-OV-3; SK-OV-3, 48 h, read-out: Growth Percentage
  activity at 10 µM: 59.9%
SK-OV-3; SK-OV-3, read-out: LC50
  CC50: > 100 µM
SK-OV-3; SK-OV-3, read-out: TGI
  IC (TGI): > 100 µM
A498; A498
  GI50: 19.5 µM
  IC50: 47.9 µM
A498; A498, 48 h, read-out: Growth Percentage, A498, dose of 10 μM
  activity at 10 µM: 98%
A498; A498, read-out: LC50
  CC50: 91.2 µM
A498; A498, read-out: TGI
  IC (TGI): 42.7 µM
ACHN
  GI50: 2.29 µM
  IC50: 3.72 µM
ACHN; [3]
  activity at 10 µM: 22.9%
ACHN; read-out: LC50
  CC50: 21.4 µM
ACHN; read-out: TGI
  IC (TGI): 6.03 µM
RXF 393; RXF 393
  GI50: 1.91 µM
  IC50: 5.13 µM
RXF 393; RXF 393, 48 h, read-out: Growth Percentage
  activity at 10 µM: 10.7%
RXF 393; RXF 393, read-out: LC50
  CC50: 10 µM
RXF 393; RXF 393, read-out: TGI
  IC (TGI): 4.37 µM
PC-3; PC-3
  GI50: 2.88 µM
  IC50: 4.9 µM
PC-3; PC-3, 48 h, read-out: Growth Percentage
  activity at 10 µM: 31.8%
PC-3; PC-3, read-out: LC50
  CC50: > 100 µM
PC-3; PC-3, read-out: TGI
  IC (TGI): 13.8 µM
BT-549; BT-549
  GI50: 2.24 µM
  IC50: 5.89 µM
BT-549; BT-549, 48 h, read-out: Growth Percentage
  activity at 10 µM: 2.28%
BT-549; BT-549, read-out: TGI
  IC (TGI): 6.17 µM

From article PMC11435058, “Synthesis of New Thiazole-Privileged Chalcones as Tubulin Polymerization Inhibitors with Potential Anticancer Activities” (Pharmaceuticals, 2024)
